Measured values from US10837015B2, “Targeting the glutamine to pyruvate pathway for treatment of oncogenic Kras-associated cancer” (Dana-Farber Cancer Institute, Inc., priority 2012, dated 2020).

Legend:
[1] = system: HPDE (non-transformed human pancreatic ductal epithelial cells); assay: Cell proliferation assay, non-transformed pancreatic ductal cells; assay type: cell-based; conditions: FIG. 30A/30B
Method: (§1) Cells were plated in 24-well plates at 2,000 cells per well in 0.5 mL of media. To deprive Gln, cells were plated in complete culture medium (10 mM glucose and 2 mM Gln) which was exchanged with Gln-free culture medium supplemented with 10% dFBS the following day. Cell culture media was not changed throughout the course of the experiment. At the indicated time points, cells were fixed in 10% formalin and stained with 0.1% crystal violet. Dye was extracted with 10% acetic acid and the relative proliferation was determined by OD at 595 nm.

PDAC cells [2] = assay: Cell proliferation assay (crystal violet); assay type: cell-based, human; conditions: for PDAC growth (relative growth): 8988T cells treated with inhibitor, FIG. 7A/7B
Method: as §1

[3] = system: IMR90 (human diploid fibroblasts); assay: Cell proliferation assay, diploid fibroblasts; assay type: cell-based; conditions: FIG. 30A/30B
Method: as §1

PDAC cells [4] = assay: Clonogenic assay; assay type: cell-based, human; conditions: for sensitivity of clonogenic growth upon Kras knockdown: 8988T cells expressing shKras; for sensitivity of clonogenic growth upon Kras knockdown / clonogenic growth: FIG. 34; for clonogenic growth: 8988T cells, control shRNA; for rescue of clonogenic growth upon Gln deprivation: Gln-free medium supplemented with metabolite, FIG. 5, 22, 26, 29
Method: Cells were plated in 6-well plates at 300 cells per well in 2 mL of media. Cell culture media was not changed throughout the course of the experiment. After 7-10 days, colonies were fixed in 80% methanol and stained with 0.2% crystal violet.

[5] = system: PDAC cells (8988T, Panc1); assay: Sensitization of PDAC cells to ROS / cell viability with GLS inhibitors (Cell Titer Glo); assay type: cell-based, human; conditions: for relative cell viability (growth suppressive effect): 8988T or Panc1 cells, GLS inhibitor alone, FIG. 36; for relative cell viability, GLS inhibitor combined with H2O2: 8988T, Panc1, 968 or BPTES (100 nM) with increasing H2O2, FIG. 37, 38
Method: PDAC cell lines were plated into 96-well plates at 10^3 cells/well in 200 μL of growth medium. The following day, growth medium was replaced with that containing GLS inhibitors and/or H2O2. Parallel plates were analyzed at 3, 6 and 9 days by Cell Titer Glo analysis (Promega), per the manufacturer's instruction. […] BPTES was a kind gift from Jaime Escobedo (Forma Therapeutics, Watertown, Mass.).

8988T cells = assay: ROS quantification (DCFDA assay, flow cytometry); assay type: cell-based, human
Method: The DCFDA assay was performed 24 hr after supplementing Gln-free media with either OAA (4 mM) or dimethyl malate (4 mM). Cells were incubated with 5 μM 2′,7′-dichlorodihydrofluorescein diacetate (DCFDA, Invitrogen) for 30 min. Excess DCFDA was removed by washing the cells twice with PBS, and labeled cells were then trypsinized, rinsed, and resuspended in PBS. Oxidation of DCFDA to the highly fluorescent 2′,7′-dichloro-fluorescein (DCF) is proportionate to ROS generation and was analyzed by flow cytometry.

## NOCC(=O)O [AOA, aminooxyacetate]
[1]
  growth (relative growth) of HPDE cells: no significant effect on growth
PDAC cells [2]
  PDAC growth (relative growth): robustly inhibited the growth
[3]
  growth (relative growth) of IMR90 cells: no significant effect on growth
PDAC cells [4]
  sensitivity of clonogenic growth upon Kras knockdown: significantly more resistant
  clonogenic growth: significantly inhibited clonogenic growth

## O=C(Cc1ccccc1)Nc1nnc(CCSCCc2nnc(NC(=O)Cc3ccccc3)s2)s1 [BPTES]
[5]
  relative cell viability (growth suppressive effect): growth suppressive effect
  relative cell viability, GLS inhibitor combined with H2O2: dramatically augmented

## O=C(O[C@@H]1Cc2c(O)cc(O)cc2O[C@@H]1c1cc(O)c(O)c(O)c1)c1cc(O)c(O)c(O)c1 [EGCG, Epigallocatechin Gallate]
[1]
  growth (relative growth) of HPDE cells: significantly sensitive
PDAC cells [2]
  PDAC growth (relative growth): little effect
PDAC cells [4]
  sensitivity of clonogenic growth upon Kras knockdown: sensitive
  clonogenic growth: minimal effects

## N[C@@H](CCC(=O)N[C@@H](CS)C(=O)NCC(=O)O)C(=O)O [GSH, reduced glutathione]
PDAC cells [4]
  rescue of clonogenic growth upon Gln deprivation: dramatically rescued the clonogenic survival

## CN(C)c1ccc(C2Nc3ccc4ccccc4c3C3=C2C(=O)CC(C)(C)C3)cc1Br (stereo not shown) [compound 968]
[5]
  relative cell viability (growth suppressive effect): growth suppressive effect
  relative cell viability, GLS inhibitor combined with H2O2: dramatically augmented

## COC(=O)CCC(=O)C(=O)OC [dimethyl αKG]
PDAC cells [4]
  rescue of clonogenic growth upon Gln deprivation: did not restore growth

## COC(=O)CC(O)C(=O)OC (stereo not shown) [dimethyl-malate]
PDAC cells [2]; 8988T cells expressing shGOT1, 4 mM supplement, FIG. 28
  rescue of PDAC cell growth upon GOT1 knockdown: partially rescue PDAC cell growth
PDAC cells [2]; Gln-free medium supplemented with metabolite, FIG. 6, 27
  rescue of cell proliferation upon Gln deprivation: partially rescue PDAC cell growth
8988T cells; 8988T cells expressing shGOT1, medium supplementation
  ROS levels (DCFDA signal) upon GOT1 knockdown: rescued the oxidative stress
8988T cells; Gln-free media supplemented 24 hr, 4 mM
  ROS levels (DCFDA signal) upon Gln deprivation: rescued the oxidative stress
